For 28 compounds, EC50 results are on record in US11970479B2, “3-(1H-pyrazol-4-yl)pyridine allosteric modulators of the M4 muscarinic acetylcholine receptor” (Merck Sharp & Dohme LLC, priority 2018, dated 2024).

In this assay the target is T1, human M4 muscarinic acetylcholine receptor (Homo sapiens, UniProt P08173).
T1 construct: expressed in transfected cells
T1 sequence (P08173 1-479): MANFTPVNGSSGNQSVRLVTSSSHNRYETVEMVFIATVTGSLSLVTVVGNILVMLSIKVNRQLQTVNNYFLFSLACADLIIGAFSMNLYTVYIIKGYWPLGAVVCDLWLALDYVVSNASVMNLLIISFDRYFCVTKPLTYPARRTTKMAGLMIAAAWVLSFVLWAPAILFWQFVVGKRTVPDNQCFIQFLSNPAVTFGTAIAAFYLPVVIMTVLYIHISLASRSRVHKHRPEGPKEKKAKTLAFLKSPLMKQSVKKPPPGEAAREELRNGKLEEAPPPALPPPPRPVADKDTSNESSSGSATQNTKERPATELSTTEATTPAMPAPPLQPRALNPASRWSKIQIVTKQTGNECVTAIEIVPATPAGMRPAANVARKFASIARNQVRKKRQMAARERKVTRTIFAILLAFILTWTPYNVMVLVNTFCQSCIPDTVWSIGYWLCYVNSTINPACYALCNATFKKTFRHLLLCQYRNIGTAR
Briefly: human FLIPR-based M4 PAM assay (CHO-K1 cells with human M4 receptor and Gαqi5, calcium dye fluorescence, EC20 acetylcholine). The settings on record: inflection point (IP) of the dose response curve, human M4 receptor/Gαqi5, acetylcholine at 20% of maximum response, read-out: M4PAM Hu IP. Format: cell-based. The procedure:
(§1) In a typical experiment the M4 muscarinic acetylcholine receptor modulating activity of the compounds of the present invention was determined in accordance with the following experimental method. CHO-K1 cells stably transfected with human M4 receptor and chimeric G-protein Gαqi5 (Coward P, et al., Analytical Biochemistry, 270:242-248 (1999)) are thawed from liquid N2 storage, resuspended in growth medium, plated in black, clear bottom 384 well plates, and incubated 16-20 hours at 37° C., 5% CO2. On the day of assay, growth medium is removed, the cells are washed 2 times with wash buffer, and cells are incubated in dye loading buffer at 37° C., 5% CO2 for ˜1 hour. Following dye loading the cell plates are placed in a FLIPR Tetra instrument and while monitoring dye fluorescence (excitation […]), 10 uL of test substance at increasing concentrations is added, and fluorescence values are recorded for 4 min. Next, 10 uL of acetylcholine is added (final concentration calculated so as to achieve 20% of the maximum acetycholine response), and the fluorescence reading is continued for 3.5 min. In some cases, a third addition of acetylcholine (final concentration calculated to achieve 70% of the maximal acetylcholine response) is performed. The resulting dose response curves are fit to a 4 parameter logistic equation and the final result is determined as the inflection point (IP) of the curve
as §1, with “CHO-K1” for “In a typical experiment the M4 muscarinic acetylcholine receptor modulating activity of the compounds of the present invention was determined in accordance with the following experimental method. CHO-K1”, “Gαqi5” for “Gαqi5 (Coward P, et al., Analytical Biochemistry, 270:242-248 (1999))”, “performed.” for “performed. The resulting dose response curves are fit to a 4 parameter logistic equation and the final result is determined as the inflection point (IP) of the curve”

Consider `COc1cc2ccc(-c3nc(C)ccc3-c3cnn(CC4(C)CCOC4)c3)cc2nn1` (single isomer, unassigned) [Example 98, 3-methoxy-7-(6-methyl-3-{1-[(3-methyltetrahydrofuran-3-yl)methyl]-1H-pyrazol-4-yl}pyridin-2-yl)cinnoline], for which the EC50 was found to be 57 nM. With `COc1cc2ccc(-c3nc(C)ccc3-c3cnn(CC4(C)CCOC4)c3)cc2nn1` (single isomer, unassigned) [Example 99, 3-methoxy-7-(6-methyl-3-{1-[(3-methyltetrahydrofuran-3-yl)methyl]-1H-pyrazol-4-yl}pyridin-2-yl)cinnoline] the figure was 169 nM; with `COc1cc2ccc(-c3ncccc3-c3cnn(CC4(C)CCCCC4)c3)cc2nn1` [Example 1, 3-methoxy-7-(3-{1-[(1-methylcyclohexyl)methyl]-1H-pyrazol-4-yl}pyridin-2-yl)cinnoline], 22 nM. With `Cc1ccc(-c2cnn(CCC(C)(C)F)c2)c(-c2ccc3cccnc3c2)n1` [Example 2, 7-(3-(1-(3-fluoro-3-methylbutyl)-1H-pyrazol-4-yl)-6-methylpyridin-2-yl)quinoline] the figure was 70 nM. With `COc1cc2ccc(-c3nc(C)ccc3-c3cnn(CCC(C)(C)F)c3)cc2nn1` [Example 3, 7-{3-[1-(3-fluoro-3-methylbutyl)-1H-pyrazol-4-yl]-6-methylpyridin-2-yl}-3-methoxycinnoline], the EC50 was 57 nM.

For `Cc1ccc(-c2cnn(Cc3ccccc3)c2)c(-c2ccc3cccnc3c2)n1` [Example 4, 7-[3-(1-benzyl-1H-pyrazol-4-yl)-6-methylpyridin-2-yl]quinoline], the EC50 was 91 nM. With `COc1cc2ccc(-c3nc(C)ccc3-c3cnn(Cc4ccccc4)c3)cc2nn1` [Example 5, 7-[3-(1-benzyl-1H-pyrazol-4-yl)-6-methylpyridin-2-yl]-3-methoxycinnoline] the figure was 93 nM; with `Cc1ccc(-c2cnn(CC(C)(C)C)c2)c(-c2ccc3cccnc3c2)n1` [Example 6, 7-{3-[1-(2,2-dimethylpropyl)-1H-pyrazol-4-yl]-6-methylpyridin-2-yl}quinoline], 19 nM. With `Cc1ccc(-c2cnn(CC3(C)CCCCC3)c2)c(-c2ccc3cc(C(F)(F)F)cnc3c2)n1` [Example 7, 7-(6-methyl-3-{1-[(1-methylcyclohexyl)methyl]-1H-pyrazol-4-yl}pyridin-2-yl)-3-(trifluoromethyl)quinoline] the figure was 137 nM; with `COc1cc2ccc(-c3nc(C)ccc3-c3cnn(CC4CCC4)c3)cc2nn1` [Example 8, 7-{3-[1-(cyclobutylmethyl)-1H-pyrazol-4-yl]-6-methylpyridin-2-yl}-3-methoxycinnoline], 72 nM.

Take `Cc1ccc(-c2cnn(CC34CC(C3)C4)c2)c(-c2ccc3cccnc3c2)n1` [Example 9, 7-{3-[1-(bicyclo[1.1.1]pent-1-ylmethyl)-1H-pyrazol-4-yl]-6-methylpyridin-2-yl}quinoline]: the EC50 came to 21 nM. With `COc1cc2ccc(-c3nc(C)ccc3-c3cnn(CC45CC(C4)C5)c3)cc2nn1` [Example 10, 7-{3-[1-(bicyclo[1.1.1]pent-1-ylmethyl)-1H-pyrazol-4-yl]-6-methylpyridin-2-yl}-3-methoxycinnoline] the figure was 20 nM; with `Cc1ccc(-c2cnn(CCC(C)C(F)(F)F)c2)c(-c2ccc3cccnc3c2)n1` (stereo not shown) [Example 11, 7-{6-methyl-3-[1-(4,4,4-trifluoro-3-methylbutyl)-1H-pyrazol-4-yl]pyridin-2-yl}quinoline], 89 nM; with `Cc1ccc(-c2cnn(CC34CC5CC(CC(C5)C3)C4)c2)c(-c2ccc3cccnc3c2)n1` [Example 12, 7-(3-(1-(((3r,5r,7r)-adamantan-1-yl)methyl)-1H-pyrazol-4-yl)-6-methylpyridin-2-yl)quinoline], 80 nM. Then `COc1cc2ccc(-c3nc(C)ccc3-c3cnn(CC45CC6CC(CC(C6)C4)C5)c3)cc2nn1` [Example 13, 7-(3-(1-(((3r,5r,7r)-adamantan-1-yl)methyl)-1H-pyrazol-4-yl)-6-methylpyridin-2-yl)-3-methoxycinnoline], with 37 nM; and `Cc1ccc(-c2cnn(CC34CCC(CC3)CC4)c2)c(-c2ccc3cccnc3c2)n1` [Example 14, 7-{3-[1-(bicyclo[2.2.2]oct-1-ylmethyl)-1H-pyrazol-4-yl]-6-methylpyridin-2-yl}quinoline], with 20 nM; and `COc1cc2ccc(-c3nc(C)ccc3-c3cnn(CC45CCC(CC4)CC5)c3)cc2nn1` [Example 15, 7-{3-[1-(bicyclo[2.2.2]oct-1-ylmethyl)-1H-pyrazol-4-yl]-6-methylpyridin-2-yl}-3-methoxycinnoline], with 14 nM. `Cc1ccc(-c2cnn(CC3CCC(F)(F)CC3)c2)c(-c2ccc3cccnc3c2)n1` [Example 16, 7-(3-{1-[(4,4-difluorocyclohexyl)methyl]-1H-pyrazol-4-yl}-6-methylpyridin-2-yl)quinoline]: the EC50 was 124 nM.

Consider `COc1cc2ccc(-c3nc(C)ccc3-c3cnn(CC4CCC(F)(F)CC4)c3)cc2nn1` [Example 17, 7-(3-{1-[(4,4-difluorocyclohexyl)methyl]-1H-pyrazol-4-yl}-6-methylpyridin-2-yl)-3-methoxycinnoline], for which the EC50 was 56 nM.

Regarding `Cc1ccc(-c2cnn(CC3CCC(F)CC3)c2)c(-c2ccc3cccnc3c2)n1` (stereo not shown) [Example 18, 7-(3-{1-[(4-fluorocyclohexyl)methyl]-1H-pyrazol-4-yl}-6-methylpyridin-2-yl)quinoline], the EC50 is 88 nM. With `COc1cc2ccc(-c3nc(C)ccc3-c3cnn(CC4CCC(F)CC4)c3)cc2nn1` (stereo not shown) [Example 19, 7-(3-{1-[(4-fluorocyclohexyl)methyl]-1H-pyrazol-4-yl}-6-methylpyridin-2-yl)-3-methoxycinnoline] the figure was 43 nM.

As to `Cc1ccc(-c2cnn(Cc3ccccc3F)c2)c(-c2ccc3cccnc3c2)n1` [Example 20, 7-{3-[1-(2-fluorobenzyl)-1H-pyrazol-4-yl]-6-methylpyridin-2-yl}quinoline], the EC50 worked out at 92 nM.

`COc1cc2ccc(-c3nc(C)ccc3-c3cnn(Cc4ccccc4F)c3)cc2nn1` [Example 21, 7-{3-[1-(2-fluorobenzyl)-1H-pyrazol-4-yl]-6-methylpyridin-2-yl}-3-methoxycinnoline]: the EC50 came out at 62 nM. With `COc1cc2ccc(-c3nc(C)ccc3-c3cnn(CC4(C)CCC(F)(F)CC4)c3)cc2nn1` [Example 22, 7-(3-{1-[(4,4-difluoro-1-methylcyclohexyl)methyl]-1H-pyrazol-4-yl}-6-methylpyridin-2-yl)-3-methoxycinnoline] the figure was 16 nM. Then `COc1cc2ccc(-c3nc(C)ccc3-c3cnn(CC4(C)CCCO4)c3)cc2nn1` (stereo not shown) [Example 23, 3-methoxy-7-(6-methyl-3-{1-[(2-methyltetrahydrofuran-2-yl)methyl]-1H-pyrazol-4-yl}pyridin-2-yl)cinnoline], with 111 nM. With `COc1cc2ccc(-c3nc(C)ccc3-c3cnn(CC4(C(F)(F)F)CCC4)c3)cc2nn1` [Example 24, 3-methoxy-7-[6-methyl-3-(1-{[1-(trifluoromethyl)cyclobutyl]methyl}-1H-pyrazol-4-yl)pyridin-2-yl]cinnoline] the figure was 151 nM; with `COc1cc2ccc(-c3nc(C)ccc3-c3cnn(CC4(C)CCC4)c3)cc2nn1` [Example 25, 3-methoxy-7-(6-methyl-3-{1-[(1-methylcyclobutyl)methyl]-1H-pyrazol-4-yl}pyridin-2-yl)cinnoline], 46 nM; with `COc1cc2ccc(-c3nc(C)ccc3-c3cnn(CC4(C)CC4)c3)cc2nn1` [Example 26, 3-methoxy-7-(6-methyl-3-{1-[(1-methylcyclopropyl)methyl]-1H-pyrazol-4-yl}pyridin-2-yl)cinnoline], 70 nM.
